From PubChem BioAssay (NCI) come the findings set out here.

Holding throughout (experiment): inhibition of tumour cell growth, NCI panel, 48 h
Experiment [1] has as its system ACHN renal.
The subject of experiment [2] is CAKI-1 renal.
Experiment [3] concerns HS 578T breast.
Experiment [4] concerns NCI-H23 lung.
In experiment [5] the test system is OVCAR-5 ovarian.
Experiment [6] concerns SNB-75 CNS.
Experiment [7] has as its system TK-10 renal.
The subject of experiment [8] is UACC-257 melanoma.

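Method: 48-hour compound exposure of cells in 96-well plates, five concentrations, linear interpolation of endpoints. The concentration for 50% growth inhibition is given as GI50. TGI marks complete inhibition of growth.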 Bounds are passed on as bounds.

Regarding `O=C(CNc1nccs1)Nn1cnc2ccc(S(=O)(=O)Nc3nccs3)cc2c1=O`, the TGI in experiment [1], in experiment [2], in experiment [3], in experiment [4], in experiment [5] and in experiment [6] was over 100 µM throughout. Moreover, the TGI in experiment [7] and in experiment [8] was over 100 µM throughout.
Take `Cc1ccc(S(=O)(=O)/N=C2/N(C)CCCS2(=O)=O)cc1`: the TGI in experiment [1], in experiment [2], in experiment [3], in experiment [4], in experiment [5] and in experiment [6] was over 100 µM in each case. Further, the TGI in experiment [7] and in experiment [8] was over 100 µM throughout.
`COc1ccc(N2CN(C)CSC2=S)cc1`: the TGI in experiment [1], in experiment [2], in experiment [3], in experiment [4], in experiment [5] and in experiment [6] was over 100 µM throughout. The TGI in experiment [7] and in experiment [8] was over 100 µM each time.
With `Cc1ccc2n(c1)cc(-c1ccc(/C=N/NC(=N)N/N=C/c3ccc(-c4cn5cc(C)ccc5[n+]4C)cc3)cc1)[n+]2C`, the TGI in experiment [1] is over 100 µM; in experiment [3], over 100 µM; in experiment [5], over 100 µM; in experiment [6], 35.2 µM; in experiment [7] it was over 100 µM; in experiment [8], over 100 µM.
On to `COCCOC(C)C(=O)C(O)S(=O)(=O)O` (stereo not given), for which the TGI in experiment [1], in experiment [3], in experiment [4], in experiment [5], in experiment [6] and in experiment [7] was over 100 µM each time. This molecule also registered a TGI in experiment [8] of over 100 µM.
Regarding `C/C(=N\NC(=O)CC#N)C(CN1CCCCC1)C(c1ccccc1)c1c(O)c2ccccc2oc1=O` (stereo not given), the TGI in experiment [1], in experiment [2], in experiment [3], in experiment [4], in experiment [5] and in experiment [6] was over 100 µM in each case. Further, the TGI in experiment [7] and in experiment [8] was over 100 µM in each case.
As for `Fc1ccc2[nH]cc(-c3nc(-c4c[nH]c5ccncc45)cs3)c2c1`, the GI50 is 1.61 µM in experiment [1]; 1.93 µM in experiment [5]; 1.22 µM in experiment [6]; 2.3 µM in experiment [7]; 1.91 µM in experiment [8]. Besides, the TGI in experiment [1] was found to be 2.97 µM; in experiment [5] it was 3.38 µM; in experiment [6] it was 2.62 µM; in experiment [7] it was 3.91 µM; in experiment [8], 3.58 µM.
On to `CCCCCCCCCC(O)CC(=O)c1c(O)cccc1O` (stereo not given), for which the TGI in experiment [1] is 53.7 µM; in experiment [2], 44 µM; in experiment [3] it was 40.8 µM; in experiment [4] it was 43.7 µM; in experiment [5], 35.7 µM; in experiment [6] it was 34.9 µM. The TGI in experiment [7] is 45.7 µM; in experiment [8], 38.7 µM.
With `CNC(=O)c1cc2nc3ccccc3c(=O)n2c2ccccc12`, the TGI in experiment [1], in experiment [2], in experiment [3], in experiment [4], in experiment [5] and in experiment [7] was over 10 µM each time. Further, the TGI in experiment [8] is over 10 µM.
For the molecule `COc1cc(S(=O)(=O)Nc2ccc(-c3csc(N4C(=O)C(Cl)C4c4cccc(Oc5ccccc5)c4)n3)cc2)ccc1Cl` (stereo not given), the TGI in experiment [1] is 57.1 µM; in experiment [2] it was 41.8 µM; in experiment [3], over 100 µM; in experiment [4], 36.9 µM; in experiment [5] it was over 100 µM; in experiment [6], 45.8 µM. In experiment [8], this molecule came in with a TGI of over 100 µM.
For `CC(C(=O)NCCNC(=O)CCC(=O)N(C)O)C(=O)NCCNC(=O)CCC(=O)N(C)O`, the TGI in experiment [1], in experiment [2], in experiment [3], in experiment [4], in experiment [5] and in experiment [6] was over 100 µM throughout. Further, the TGI in experiment [7] and in experiment [8] was over 100 µM throughout.
Take `Cn1c(=O)c2c(nc3n2CCC(=O)N3CCCCl)n(C)c1=O`: the TGI in experiment [1], in experiment [3], in experiment [4], in experiment [5], in experiment [6] and in experiment [7] was over 100 µM in each case. Also, the TGI in experiment [8] was over 100 µM.
Turning to `CCOC(=O)CCC(NC(=O)c1ccc(Nc2nc3cc(C(F)(F)F)ccc3nc2C(=O)OCC)cc1)C(=O)OCC` (stereo not given), the TGI in experiment [1] was determined as 26.7 µM; in experiment [4], 39.9 µM; in experiment [5], 39.5 µM; in experiment [8], 34.5 µM.
On to `CSc1c2c(C)n[nH]c2nn1-c1ccccc1`, for which the TGI in experiment [2] was 87.4 µM; in experiment [3] it was over 100 µM; in experiment [4], over 100 µM; in experiment [5], over 100 µM; in experiment [6] it was over 100 µM; in experiment [7] it was over 100 µM. Further, the TGI in experiment [8] was over 100 µM.
On to `Cc1ccc(/C(O)=C/c2nc3cccnc3[nH]c2=O)cc1`, for which the TGI in experiment [1], in experiment [2], in experiment [3], in experiment [4], in experiment [5] and in experiment [7] was over 100 µM each time. In experiment [8], this molecule registered a TGI of over 100 µM.
For the molecule `COc1cc(NS(C)(=O)=O)ccc1NCc1cnc2ccc3[nH]cccc3c12`, the TGI was 69.2 µM in experiment [1]; over 72.7 µM in experiment [2]; 47.5 µM in experiment [3]; 55 µM in experiment [4]; 50.4 µM in experiment [5]; 39.3 µM in experiment [6]. The TGI in experiment [7] was over 81.8 µM; in experiment [8] it was 32 µM.
Regarding `CC(=O)NNC(=S)/N=C\c1c(O)c2ccccc2oc1=O`, the TGI in experiment [1], in experiment [2], in experiment [3], in experiment [4], in experiment [5] and in experiment [6] was over 100 µM throughout. Also, the TGI in experiment [7] and in experiment [8] was over 100 µM in each case.
Consider `C/C(=N/NC(=S)N(C)C)c1ccccc1O`, for which the TGI in experiment [1] was over 76.5 µM; in experiment [2], over 100 µM; in experiment [3], over 100 µM; in experiment [4], over 100 µM; in experiment [5], over 100 µM; in experiment [6], 82.9 µM. The TGI in experiment [7] was over 100 µM; in experiment [8], 63.4 µM.
In the case of `CCNC(=O)NNc1ncnc2c1c(-c1ccc(Cl)cc1)cn2-c1ccc(C)cc1`, the TGI in experiment [1] was found to be 41.9 µM; in experiment [2], 51.1 µM; in experiment [4] it was 44.8 µM; in experiment [5], 33.5 µM; in experiment [6], 38.9 µM; in experiment [7], 81 µM. For the same molecule, in experiment [8], the TGI was found to be 35.7 µM.
Take `CC(=O)OC12CC(C(F)(F)F)(C(F)(F)F)OC1(OC(C)=O)CC(C(F)(F)F)(C(F)(F)F)O2` (stereo not given): the TGI in experiment [1] is 2.38 µM; in experiment [3], over 100 µM; in experiment [4] it was 8.71 µM; in experiment [5], 90.6 µM; in experiment [6], over 100 µM; in experiment [7], over 100 µM. In addition, the TGI in experiment [8] was over 100 µM.
For `COC(=O)[C@H]1[C@@H](O)[C@@]2(O)c3c(OC)cc(OC)cc3O[C@@]2(c2ccc3c(c2)OCO3)[C@@H]1c1ccccc1`, the TGI in experiment [1] was 0.235 µM; in experiment [2], 0.264 µM; in experiment [3], 2.13 µM; in experiment [4], 0.823 µM; in experiment [5] it was 0.206 µM; in experiment [8], over 50 µM.
With `C=CCOC(=O)c1c(C)n([O-])c2cc(Cl)c(Cl)cc2[n+]1=O`, the TGI in experiment [1] came out at 50.9 µM; in experiment [2], 39.6 µM; in experiment [3], 65.9 µM; in experiment [4], 30.3 µM; in experiment [5], 75.7 µM; in experiment [7], 87.2 µM. The TGI in experiment [8] is 37.9 µM.
Take `O=C1CCCCC/C1=C\c1cccc([N+](=O)[O-])c1`: the TGI in experiment [1] was over 100 µM; in experiment [2], over 100 µM; in experiment [5] it was over 100 µM; in experiment [6], over 100 µM; in experiment [7], 97.2 µM; in experiment [8] it was 54.8 µM.
In the case of `Cc1nc2ccccc2c(=O)n1NC(=O)c1ccccc1[N+](=O)[O-]`, the TGI in experiment [1], in experiment [3], in experiment [4], in experiment [5], in experiment [6] and in experiment [7] was over 100 µM in each case. The TGI in experiment [8] was over 100 µM.
Take `Cc1ccc(S(=O)(=O)NC(=O)NCCc2ccc(O)c(O)c2)cc1`: the TGI in experiment [1], in experiment [2], in experiment [3], in experiment [4], in experiment [5] and in experiment [6] was over 100 µM each time. The same molecule displayed a TGI in experiment [7] of over 100 µM.
`C=CC(C)(C)C1(CC(OC)OC)C(=O)N(C)c2ccccc21` (stereo not given): the TGI in experiment [1], in experiment [2], in experiment [3], in experiment [4], in experiment [5] and in experiment [6] was over 25 µM in each case. The molecule also showed a TGI in experiment [8] of over 25 µM.
As to `Cn1cc(-c2nc(-c3c[nH]c4ccncc34)cs2)c2ccccc21`, the GI50 was 1.6 µM in experiment [1]; 1.48 µM in experiment [2]; 1.93 µM in experiment [3]; 1.76 µM in experiment [5]; 1.29 µM in experiment [6]; 1.97 µM in experiment [7]. The GI50 in experiment [8] was 1.96 µM. Further, the TGI in experiment [1] is 2.96 µM; in experiment [2] it was 2.85 µM; in experiment [3], 4.4 µM; in experiment [5], 3.18 µM; in experiment [6] it was 2.61 µM; in experiment [7], 3.46 µM. Further, the TGI in experiment [8] was found to be 3.55 µM.
For the molecule `CCCCOc1c(C(=O)O)cc(Br)cc1C(=O)O`, the TGI in experiment [1], in experiment [2], in experiment [4], in experiment [5], in experiment [6] and in experiment [7] was over 100 µM in each case. In experiment [8], this molecule registered a TGI of over 100 µM.
With `CCn1c(-c2ccc(OC)cc2)nc2c1C(=O)c1ccccc1C2=O`, the TGI in experiment [1], in experiment [3], in experiment [4], in experiment [5], in experiment [6] and in experiment [7] was over 100 µM throughout. Also, the TGI in experiment [8] is over 100 µM.
Consider `N#C/C(=C/n1c(=S)[nH]c2ccccc21)C(N)=O`, for which the TGI in experiment [1], in experiment [2], in experiment [3], in experiment [4], in experiment [5] and in experiment [6] was over 100 µM each time. The TGI in experiment [8] is over 100 µM.
As to `O=C(OCC1CCCN2CCCCC12)c1cccnc1` (stereo not given), the TGI in experiment [1], in experiment [2], in experiment [3], in experiment [4], in experiment [6] and in experiment [7] was over 100 µM in each case. For the same molecule, the TGI in experiment [8] is over 100 µM.
Regarding `CC1(C)Oc2ccc3c(=O)cc(-c4cccs4)oc3c2C1C(=O)O` (stereo not given), the TGI in experiment [2] was 60.4 µM; in experiment [3], over 100 µM; in experiment [4], over 100 µM; in experiment [5] it was over 100 µM; in experiment [7], over 100 µM; in experiment [8] it was over 100 µM.
With `CCOC(=O)C1(C#N)C2(C#N)C(N)=NC(ON=C(C)C)(ON=C(C)C)C12C#N` (stereo not given), the TGI in experiment [1], in experiment [2], in experiment [3], in experiment [4], in experiment [5] and in experiment [7] was over 100 µM throughout. The molecule further came in with a TGI in experiment [8] of over 100 µM.
`Cc1nc(N)sc1C(=O)Nc1ncn[nH]1`: the TGI in experiment [1], in experiment [2], in experiment [3], in experiment [4], in experiment [5] and in experiment [7] was over 100 µM each time. The same molecule registered a TGI in experiment [8] of over 100 µM.
As to `CCCc1n[nH]c(=O)n1N1C(=O)C=CC1=O`, the TGI in experiment [2], in experiment [4], in experiment [5], in experiment [7] and in experiment [8] was over 100 µM throughout.
